From patent US6849607B2, “Galectin recognized photosensitizers for photodynamic therapy” (Health Research, Inc., priority 2001, dated 2005)

What was measured:
[1] = biological target: Gal-1 (Homo sapiens, UniProt P09382); assay: Gal-1 inhibition binding, indirect ELISA (Gal-1-HRP conjugate on asialofetuin-coated wells)
Procedure: Cell. Biochem., 43, 43-57, 1990) to eliminate the thiol requirement for retention of carbohydrate-binding activity. Coupling of alkylated galaptin to Horseradish peroxidase (HRP) was carried out by a two-step glutaraldehyde procedure as described by Engvall (Engvall E., Enzyme Immunoassay ELISA and EMIT, Methods in Enzymology, 70, 419-439, 1980). The galactin-peroxidase conjugate was prepared in 50% glycerol-1% BSA and stored at -20° C. until use. The binding of the Gal-1 to photosensitizers with and without the galactose moiety was measured by an indirect ELISA method as described by Chen et al. […] The microtiter wells (Dynatech Laboratories, Chantilly, Va.) were coated with 2 μg asial fetuin (Sigma) in 100 μl of 0.1M sodium carbonate, 0.2% NaN3, pH 9.6 at 37° C. for 3h. The plates were tightly covered with parafilm and stored at 4° C. for use within three weeks. The optimal dilution for Gal-1HRP conjugate was determined by checker-board titration. For studying the effect of saccharides and their conjugates, 60 μl aliquots of diluted Gal-1-HRP conjugate containing 1.4 μg of Gal-1 were mixed separately in duplicate with 60 μl dilute buffer as well as serially diluted test compounds and incubated for 1 h at 37° C. A 100 μl aliquot was transferred to the microtiter wells, which had been coated with […] Fetuin, blocked and washed. The plates were then incubated for 1 h at 37° C. followed by color development with ABTS (Kirkegaard & Perry lab. Gaithersburg, Md.) and reading at 405 nm on an ELISA reader.

[2] = test system: radiation induced fibrosarcoma (RIF) tumor cell; assay: In vitro photosensitizing activity in RIF tumor cells (MTT); type: cell-based; conditions: 2.0 μM, light dose of 4 J/cm2
Procedure: Both cell lines are known to have some expression for Galectin-1 (Sacchettini, J. C., Baum, L. G. and Brewer, C. F., Multivalent Protein-carbohydrate Interactions. A New Paradiagm for Super Molecular Assembly and Signal Transduction, Biochemistry, 40:3009-3015, 2001). The Molt-4 cells were grown in RPMI 1640 5% FCS (Fetal calf serum) in 100% humidity with 5% CO2. Cells were transferred to phenol red free (PRF) RPMI 1640 media with 1% FCS and plated at 2.5×10^4 cells/well. After 3 hours incubation in the dark, the cells were washed once with PBS and re-suspended in prf RPMI 1640 with 1% FCS. These cells were then illuminated with a 1000W Quartz Halogen Lamp with IR and bandpass dichroic filters to allow light between 400 nm-700 nm, at a dose rate of 16 mW/cm^2 at 695 nm. The RIF tumor cells were grown in alpha-DMEM with 10% fetal calf serum, penicillin and streptomycin. Cells were maintained in 5% CO2, 95% air and 100% humidity. For determining the PDT efficacy, these cells were plated in 96-well plates and a density of 1×10^4 cells well in complete media. After overnight incubation to allow the cells to attach the photosensitizers 14 were individually added at variable concentrations. After a 3 hr incubation in the dark at 37° C., the cells were washed once with PBS, then irradiated with the same light source as above (Molt-4 procedure), and the optimal cell kill was obtained at a concentration of 1.0 μM. After PDT the cells were washed once and placed in complete media and incubated for 48 hrs. […] The 96-well plate was read on a microtiter plate reader (Miles Inc. Titertek Multiscan Plus MK II) at an absorbance of 560 nm. […]

[3] = test system: Molt-4 human leukemic T-cells; assay: In vitro photosensitizing efficacy in Molt-4 cells (MTT); type: cell-based; conditions: for effect of the free saccharide on PDT activity of the conjugate: Molt-4 cells incubated with galactose or lactose at various concentrations (0-100 μM)
Procedure: Both cell lines are known to have some expression for Galectin-1 ([…]., Baum, L. G. and Brewer, C. F., Multivalent Protein-carbohydrate Interactions. A New […] for Super Molecular Assembly and Signal Transduction, Biochemistry, 40:3009-3015, 2001). The Molt-4 cells were grown in RPMI 1640 5% FCS (Fetal calf serum) in 100% humidity with 5% CO2. Cells were transferred to phenol red free (PRF) RPMI 1640 media with 1% FCS and plated at 2.5×10^4 cells/well. After 3 hours incubation in the dark, the cells were washed once with PBS and re-suspended in prf RPMI 1640 with 1% FCS. These cells were then illuminated with a […] Quartz Halogen Lamp with IR and bandpass dichroic filters to allow light between 400 nm-700 nm, at a dose rate of 16 mW/cm^2 at 695 nm. The RIF tumor cells were grown in alpha-DMEM with 10% fetal calf serum, penicillin and streptomycin. Cells were maintained in 5% CO2, 95% air and 100% humidity. […] After overnight incubation to allow the cells to attach the photosensitizers 14 were individually added at variable concentrations. After a 3 hr incubation in the dark at 37° C., the cells were washed once with PBS, then irradiated with the same light source as above (Molt-4 procedure), and the optimal cell kill was obtained at a concentration of 1.0 μM. After PDT the cells were washed once and placed in complete media and incubated for 48 hrs. […] Louis, Mo.) was added to each well (Kessel, D., Luo, Y., Photodynamic Therapy: A Mitochondrial Inducer of Apoptosis, Cell Death Differ. 6:28-35, 1999; MacDonald, I., Morgan, […]., Litchfield, D. J. Dougherty, T. J., Subcellular Localization Patterns and their Relationship to Photodynamic Activity of Pyropheophorbide-a Derivatives, Photochem. Photobiol., 70, 789-997, 1999). After 4 hr incubation at 37° C. the MTT+media were removed and 100 μl DMSO was added to solubilize the formazin crystals. The 96-well plate was read on a microtiter plate reader (Miles Inc. Titertek Multiscan Plus MK II) at an absorbance of 560 nm. The results were plotted as percent survival of the corresponding dark (drug no light) control for each compound tested. Each data point represents the mean from 3 separate experiments, and the error bars are the standard deviation. Each experiment was done with 5 replicate wells. […] The cells were then washed once with phosphate buffer saline (PBS), carbohydrate conjugates were then added, and the cells were again incubated for an additional 3 hrs. After treating with light, the cells were re-suspended in fresh media and incubated for 48 hrs. MTT was added to the cells and incubated for an additional 4 hrs. Dimethylsulfoxide (100 μl) was then added to each well to dissolve the formazin crystals. The plates were read on a 96 well plate reader at an absorbance of 560 nm. The data are in replicates of 6 wells and are normalized to control cells (light, no drug). In another set of experiments, a similar procedure was followed, except, the cells were not washed before the light treatment. […] Louis, Mo.) was added to the cells and incubated for an additional 4 hrs. Dimethylsulfoxide (100 μl) was then added to each well to dissolve the formazin crystals. The plates were read on a 96 well plate reader (Miles Inc. Titertek Multiscan Plus MK II) at an absorbance of 560 nm. The data are in replicates of 6 wells and are normalized to control cells (light, no drug).

Sequence of Gal-1 (P09382 whole entry): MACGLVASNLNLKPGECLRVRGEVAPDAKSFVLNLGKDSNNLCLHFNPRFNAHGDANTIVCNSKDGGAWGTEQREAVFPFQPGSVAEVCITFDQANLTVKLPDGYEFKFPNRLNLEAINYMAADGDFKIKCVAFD

| SMILES | IC50 ([1]; ELISA, read-out: I50, inhibition of Gal-1 binding) | cell kill [2] | in vitro photosensitizing efficacy (in words) ([3]; Molt-4 cells, 2.0 μM, 2a, 3a compared to 1a, 4a compared to 2a and 3a) | effect of free lactose on PDT efficacy of the photosensitizer ([3]; Molt-4 cells, photosensitizer with lactose in a ratio of 1:100, without washing) | effect of the free saccharide on PDT activity of the conjugate [3] | inhibition at 450 µM ([1]; at 450 μM) | inhibition of Gal-1 binding ([1]; at 450 μM) |
| --- | --- | --- | --- | --- | --- | --- | --- |
| C=C(C=CCO[C@@H]1O[C@H](CO)[C@H](O)[C@H](O)[C@H]1O)CN1C(=O)c2c3nc(cc4[nH]c(cc5nc(cc6[nH]c2c(c6C)C1=O)C(CC)=C5C)c(CC)c4C)C(C)C3CCC(=O)OC (mixture of isomers) [2a, Galactose-Chlorin conjugate Joined with diene linkage] | 114 µM | 100% | significant increases in photosensitizing efficacy | complete inhibition in PDT efficacy | – | – | – |
| OC[C@H]1O[C@@H](O[C@H]2[C@H](O)[C@@H](O)C(O)O[C@@H]2CO)[C@H](O)[C@@H](O)[C@H]1O (some centres unmarked) [lactose, reference compound] | – | – | – | – | significant decrease in photosensitizing efficacy | – | – |
| O=C[C@H](O)[C@@H](O)[C@@H](O)[C@H](O)CO [galactose, reference compound] | – | – | – | – | did not result in any inhibition in PDT activity | 3% | 3.29% |
